Values of other authors as cited in patent publication US6534540B2, “Combination and method of treatment of cancer utilizing a COX-2 inhibitor and a 3-hydroxy-3-methylglutaryl-coenzyme-a (HMG-CoA) reductase inhibitor” (priority 2000, dated 2003).

Experiments:
[1] = test system: Prostate Cancer Cell Line LNCaP
[2] = test system: prostate cancer specimen; conditions: mice, prostate cancer specimen in vivo
[3] = target: T1, COX-2 (Mus musculus, UniProt Q05769); conditions: in vivo
T1 sequence (Q05769 18-604): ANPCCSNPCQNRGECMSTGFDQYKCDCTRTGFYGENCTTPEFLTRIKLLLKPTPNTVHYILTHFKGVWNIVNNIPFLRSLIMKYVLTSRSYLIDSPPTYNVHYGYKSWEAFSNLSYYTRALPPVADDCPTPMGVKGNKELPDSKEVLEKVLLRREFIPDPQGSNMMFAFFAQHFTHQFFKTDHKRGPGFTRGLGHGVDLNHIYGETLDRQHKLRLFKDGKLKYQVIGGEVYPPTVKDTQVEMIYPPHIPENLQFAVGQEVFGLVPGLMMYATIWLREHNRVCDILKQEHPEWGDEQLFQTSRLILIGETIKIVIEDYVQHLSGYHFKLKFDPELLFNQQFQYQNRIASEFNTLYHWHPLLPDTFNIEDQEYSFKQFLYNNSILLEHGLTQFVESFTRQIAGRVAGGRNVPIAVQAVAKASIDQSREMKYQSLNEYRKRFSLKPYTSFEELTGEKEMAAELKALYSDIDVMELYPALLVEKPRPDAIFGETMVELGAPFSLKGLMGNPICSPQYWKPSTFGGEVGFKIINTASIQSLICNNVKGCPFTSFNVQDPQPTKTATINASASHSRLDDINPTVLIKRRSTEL

CC[C@H](C)C(=O)O[C@H]1C[C@@H](C)C=C2C=C[C@H](C)[C@H](CC[C@@H]3C[C@@H](O)CC(=O)O3)[C@H]21 [lovastatin]
therapeutic value in prostate cancer [1]: had therapeutic value in treating prostate cancer

CS(=O)(=O)Nc1ccc([N+](=O)[O-])cc1OC1CCCCC1 [NS398]
angiogenesis [2]: inhibit angiogenesis

COc1cc(C2Oc3cc([C@H]4Oc5cc(O)cc(O)c5C(=O)[C@@H]4O)ccc3OC2CO)ccc1O (stereo partly drawn) [silybinin]
COX-2 inhibition relative to COX-1 inhibition [3]: significant COX-2 inhibition relative to COX-1 inhibition
